Results: paper PMC8772704, “Quantification of Fosfomycin in Combination with Nine Antibiotics in Human Plasma and Cation-Adjusted Mueller-Hinton II Broth via LCMS” (Antibiotics, 2022)

What was measured:
[1] = Autosampler stability at 4 °C of extracted antibiotic-spiked plasma/CAMHB samples; conditions: for Mean accuracy (%), Table S8 / Mean accuracy (%), Table S10: CAMHB extracted samples; for Mean accuracy (%), Table S8 / Mean accuracy (%), Table S7: 7 h autosampler 4 °C; for Mean accuracy (%), Table S10 / Mean accuracy (%), Table S9: 15 h autosampler 4 °C; for Mean accuracy (%), Table S7 / Mean accuracy (%), Table S9: plasma extracted samples
Protocol: (§1) The stability of fosfomycin in combination with other antibiotics in plasma/CAMHB was evaluated under various operational conditions. Spiked plasma/CAMHB samples were evaluated at 7 h and 15 h in the autosampler at 4 °C. Long-term stability was evaluated up to 4 weeks of antibiotic-spiked plasma/CAMHB samples at LQC, MQC, and HQC concentrations stored at −30 °C and −80 °C.

[2] = 32-day stability of stock solutions stored at −80 °C; type: physicochemical; conditions: stock solution stored at -80 °C; peak area Day 32 vs Day 1
Protocol: Stability of stock solutions
All stock solutions of antibiotics and their corresponding stable-isotope variants were measured prior to cold storage at -80 °C and tested at 32 days later.
Stability was determined by comparing the peak area of each drug between its Day 1 and Day 32 measurement. Acceptable criteria for stability was met if the […]

[3] = Plasma concentrations in four patients on fosfomycin-based combination therapy (pilot clinical feasibility study, LCMS/MS); conditions: Patient 003, intermittent hemodialysis; cefepime 1 g every 12 h as a 4-h infusion
Protocol: For 20 µL of plasma/CAMHB sample, 20 µL of water and 20 µL of stable-isotope as internal standard (IS) were added and vortexed. 180 µL of acetonitrile was added for protein precipitation and subsequently removed by centrifugation (12,700 rpm for 10 min at 25 °C). Finally, 15 µL of the supernatant was diluted with 225 µL formic acid in water (0.1% v/v), and 10 µL was injected for LCMS/MS analysis. For the calibration curve and QCs, 20 µL of the corresponding antibiotic standard working solution was added instead of water.
Samples were analyzed using a Nexera X2 LCMS 8060 system (Shimadzu, Kyoto, Japan). […] Electrospray ionization employing positive and negative ion mode with multiple reaction monitoring was used for analyte quantification (Table S1). Data were acquired and analyzed using Shimadzu LabSolutions (Version 5.97).
The assay method described in this paper has been applied to a pilot clinical feasibility study to evaluate the proportion of patients with sub-optimal β-lactam levels and the need for dose adjustments in infected patients with unpredictable pharmacokinetics. We described a case series of four patients where they received in vitro guided antibiotic combination therapy using a fosfomycin-based combination regimen to treat a carbapenem-resistant Gram-negative bacteria infection. These four patients were recruited into the BLAST-2 study as the combination regimen contains a β-lactam antibiotic. In this case series, two were undergoing intermittent hemodialysis, and two patients had normal renal function. In the two patients on hemodialysis, they were on a dosing regimen of 8 g of fosfomycin on dialysis days (3 g at least 4 h before dialysis session and 5 g after completion of dialysis). The remaining two patients received 8 g of fosfomycin given every 8 h as a prolonged infusion.
Blood samples (2–3 mL from an indwelling catheter) were collected four times over a dosing interval of the β-lactam dosing regimen and centrifuged (10 min at 3000 rpm) (Eppendorf 5425R). The resultant plasma was stored (within 15 min of collection) at −80 °C until assay.

[4] = Long-term storage stability of antibiotics in combination with fosfomycin spiked in plasma/CAMHB (−30 °C, −80 °C); type: physicochemical; conditions: for Stability verdict (within ±15% of nominal): CAMHB samples stored at −30 °C, 4 weeks; for Mean accuracy (%), Table S15 / Mean accuracy (%), Table S17 / Mean accuracy (%), Table S16 / Mean accuracy (%), Table S18: CAMHB; for Mean accuracy (%), Table S15 / Mean accuracy (%), Table S17 / Mean accuracy (%), Table S16 / Mean accuracy (%), Table S18 / Mean accuracy (%), Table S11 / Mean accuracy (%), Table S13 / Mean accuracy (%), Table S12 / Mean accuracy (%), Table S14: combination with fosfomycin; for Mean accuracy (%), Table S15 / Mean accuracy (%), Table S11: 2 weeks at -30 °C; for Mean accuracy (%), Table S17 / Mean accuracy (%), Table S13: 2 weeks at -80 °C; for Mean accuracy (%), Table S16 / Mean accuracy (%), Table S12: 4 weeks at -30 °C; for Mean accuracy (%), Table S18 / Mean accuracy (%), Table S14: 4 weeks at -80 °C; for Mean accuracy (%), Table S11 / Mean accuracy (%), Table S13 / Mean accuracy (%), Table S12 / Mean accuracy (%), Table S14: plasma
Protocol: as §1

[5] = HQC: nominal mg/L CAZ 150, FEP 200, PIP 250, ATM 300, MEM 200, DOR 175, LVX 30, CEFT 250, TZB 87.5, TGC 20, AVI 30, FOF 1000
[6] = LQC: nominal 1 mg/L (levofloxacin, avibactam 0.5; fosfomycin 10)
[7] = MQC: nominal mg/L CAZ 75, FEP 100, PIP 150, ATM 150, MEM 100, DOR 87.5, LVX 15, CEFT 125, TZB 43.75, TGC 10, AVI 15, FOF 500

CO/N=C(\C(=O)N[C@@H]1C(=O)N2C(C(=O)[O-])=C(C[N+]3(C)CCCC3)CS[C@H]12)c1csc(N)n1 [Cefepime, cefepime]
Mean accuracy (%), Table S8 ([1]; HQC (nominal as E15)): 96.7%
Mean accuracy (%), Table S8 ([1]; LQC (nominal as E13)): 112.0%
Mean accuracy (%), Table S8 ([1]; MQC (nominal as E14)): 103.5%
Mean accuracy (%), Table S10 ([1]; HQC (nominal as E15)): 101.7%
Mean accuracy (%), Table S10 ([1]; LQC (nominal as E13)): 106.6%
Mean accuracy (%), Table S10 ([1]; MQC (nominal as E14)): 114.1%
Mean accuracy (%), Table S7 [1, 5]: 86.5%
Mean accuracy (%), Table S7 [1, 6]: 94.2%
Mean accuracy (%), Table S7 [1, 7]: 101.1%
32 Day Stability (%) [2]: 108.51%
Mean total plasma concentration (range) [3]: 21.6 to 157.5 mg/L
Stability verdict (within ±15% of nominal) [4]: instability
Mean accuracy (%), Table S15 ([4]; HQC (nominal as E15)): 95.3%
Mean accuracy (%), Table S15 ([4]; LQC (nominal as E13)): 100.9%
Mean accuracy (%), Table S15 ([4]; MQC (nominal as E14)): 102.0%
Mean accuracy (%), Table S17 ([4]; HQC (nominal as E15)): 94.8%
Mean accuracy (%), Table S17 ([4]; LQC (nominal as E13)): 108.8%
Mean accuracy (%), Table S17 ([4]; MQC (nominal as E14)): 98.7%
Mean accuracy (%), Table S16 ([4]; HQC (nominal as E15)): 93.2%
Mean accuracy (%), Table S16 ([4]; LQC (nominal as E13)): 91.1%
Mean accuracy (%), Table S16 ([4]; MQC (nominal as E14)): 94.9%
Mean accuracy (%), Table S18 ([4]; HQC (nominal as E15)): 93.2%
Mean accuracy (%), Table S18 ([4]; LQC (nominal as E13)): 107.6%
Mean accuracy (%), Table S18 ([4]; MQC (nominal as E14)): 102.8%
Mean accuracy (%), Table S11 ([4]; HQC (nominal as E15)): 89.3%
Mean accuracy (%), Table S11 ([4]; LQC (nominal as E13)): 98.6%
Mean accuracy (%), Table S11 ([4]; MQC (nominal as E14)): 87.2%
Mean accuracy (%), Table S13 ([4]; HQC (nominal as E15)): 89.0%
Mean accuracy (%), Table S13 ([4]; LQC (nominal as E13)): 102.0%
Mean accuracy (%), Table S13 ([4]; MQC (nominal as E14)): 94.3%
Mean accuracy (%), Table S12 ([4]; HQC (nominal as E15)): 89.6%
Mean accuracy (%), Table S12 ([4]; LQC (nominal as E13)): 100.5%
Mean accuracy (%), Table S12 ([4]; MQC (nominal as E14)): 97.4%
Mean accuracy (%), Table S14 ([4]; HQC (nominal as E15)): 95.7%
Mean accuracy (%), Table S14 ([4]; LQC (nominal as E13)): 111.6%
Mean accuracy (%), Table S14 ([4]; MQC (nominal as E14)): 101.3%

NC(=O)[C@@H]1CC[C@@H]2CN1C(=O)N2OS(=O)(=O)O [Avibactam, avibactam]
Mean accuracy (%), Table S8 ([1]; HQC (nominal as E15)): 106.4%
Mean accuracy (%), Table S8 ([1]; LQC (nominal as E13)): 108.8%
Mean accuracy (%), Table S8 ([1]; MQC (nominal as E14)): 104.2%
Mean accuracy (%), Table S10 ([1]; HQC (nominal as E15)): 107.5%
Mean accuracy (%), Table S10 ([1]; LQC (nominal as E13)): 108.3%
Mean accuracy (%), Table S10 ([1]; MQC (nominal as E14)): 104.9%
Mean accuracy (%), Table S7 [1, 5]: 96.2%
Mean accuracy (%), Table S7 [1, 6]: 105.4%
Mean accuracy (%), Table S7 [1, 7]: 100.7%
Mean accuracy (%), Table S9 ([1]; HQC (nominal as E15)): 95.6%
Mean accuracy (%), Table S9 ([1]; LQC (nominal as E13)): 103.4%
Mean accuracy (%), Table S9 ([1]; MQC (nominal as E14)): 99.3%
32 Day Stability (%) [2]: 102.63%
Stability verdict (within ±15% of nominal) [4]: instability
Mean accuracy (%), Table S15 ([4]; HQC (nominal as E15)): 90.4%
Mean accuracy (%), Table S15 ([4]; LQC (nominal as E13)): 93.7%
Mean accuracy (%), Table S15 ([4]; MQC (nominal as E14)): 89.1%
Mean accuracy (%), Table S17 ([4]; HQC (nominal as E15)): 95.3%
Mean accuracy (%), Table S17 ([4]; LQC (nominal as E13)): 101.2%
Mean accuracy (%), Table S17 ([4]; MQC (nominal as E14)): 95.4%
Mean accuracy (%), Table S16 ([4]; HQC (nominal as E15)): 80.6%
Mean accuracy (%), Table S16 ([4]; LQC (nominal as E13)): 82.3%
Mean accuracy (%), Table S16 ([4]; MQC (nominal as E14)): 80.6%
Mean accuracy (%), Table S18 ([4]; HQC (nominal as E15)): 98.6%
Mean accuracy (%), Table S18 ([4]; LQC (nominal as E13)): 103.0%
Mean accuracy (%), Table S18 ([4]; MQC (nominal as E14)): 98.2%
Mean accuracy (%), Table S11 ([4]; HQC (nominal as E15)): 93.9%
Mean accuracy (%), Table S11 ([4]; LQC (nominal as E13)): 100.6%
Mean accuracy (%), Table S11 ([4]; MQC (nominal as E14)): 99.4%
Mean accuracy (%), Table S13 ([4]; HQC (nominal as E15)): 95.2%
Mean accuracy (%), Table S13 ([4]; LQC (nominal as E13)): 105.1%
Mean accuracy (%), Table S13 ([4]; MQC (nominal as E14)): 100.4%
Mean accuracy (%), Table S12 ([4]; HQC (nominal as E15)): 87.3%
Mean accuracy (%), Table S12 ([4]; LQC (nominal as E13)): 100.2%
Mean accuracy (%), Table S12 ([4]; MQC (nominal as E14)): 92.6%
Mean accuracy (%), Table S14 ([4]; HQC (nominal as E15)): 92.9%
Mean accuracy (%), Table S14 ([4]; LQC (nominal as E13)): 101.0%
Mean accuracy (%), Table S14 ([4]; MQC (nominal as E14)): 94.5%

CN(C)c1cc(NC(=O)CNC(C)(C)C)c(O)c2c1C[C@H]1C[C@H]3[C@H](N(C)C)C(O)=C(C(N)=O)C(=O)[C@@]3(O)C(O)=C1C2=O [Tigecycline, tigecycline]
Mean accuracy (%), Table S8 ([1]; HQC (nominal as E15)): 103.5%
Mean accuracy (%), Table S8 ([1]; LQC (nominal as E13)): 100.6%
Mean accuracy (%), Table S8 ([1]; MQC (nominal as E14)): 103.1%
Mean accuracy (%), Table S10 ([1]; HQC (nominal as E15)): 103.2%
Mean accuracy (%), Table S10 ([1]; LQC (nominal as E13)): 101.8%
Mean accuracy (%), Table S10 ([1]; MQC (nominal as E14)): 100.2%
Mean accuracy (%), Table S7 [1, 5]: 110.0%
Mean accuracy (%), Table S7 [1, 6]: 106.7%
Mean accuracy (%), Table S7 [1, 7]: 112.7%
Mean accuracy (%), Table S9 ([1]; HQC (nominal as E15)): 111.0%
Mean accuracy (%), Table S9 ([1]; LQC (nominal as E13)): 105.1%
Mean accuracy (%), Table S9 ([1]; MQC (nominal as E14)): 106.3%
32 Day Stability (%) [2]: 102.57%
Mean accuracy (%), Table S15 ([4]; HQC (nominal as E15)): 87.2%
Mean accuracy (%), Table S15 ([4]; LQC (nominal as E13)): 98.8%
Mean accuracy (%), Table S15 ([4]; MQC (nominal as E14)): 87.3%
Mean accuracy (%), Table S17 ([4]; HQC (nominal as E15)): 102.3%
Mean accuracy (%), Table S17 ([4]; LQC (nominal as E13)): 98.9%
Mean accuracy (%), Table S17 ([4]; MQC (nominal as E14)): 106.1%
Mean accuracy (%), Table S16 ([4]; HQC (nominal as E15)): 91.2%
Mean accuracy (%), Table S16 ([4]; LQC (nominal as E13)): 87.0%
Mean accuracy (%), Table S16 ([4]; MQC (nominal as E14)): 100.6%
Mean accuracy (%), Table S18 ([4]; HQC (nominal as E15)): 91.0%
Mean accuracy (%), Table S18 ([4]; LQC (nominal as E13)): 87.6%
Mean accuracy (%), Table S18 ([4]; MQC (nominal as E14)): 95.3%
Mean accuracy (%), Table S11 ([4]; HQC (nominal as E15)): 102.5%
Mean accuracy (%), Table S11 ([4]; LQC (nominal as E13)): 111.9%
Mean accuracy (%), Table S11 ([4]; MQC (nominal as E14)): 98.9%
Mean accuracy (%), Table S13 ([4]; HQC (nominal as E15)): 107.8%
Mean accuracy (%), Table S13 ([4]; LQC (nominal as E13)): 109.8%
Mean accuracy (%), Table S13 ([4]; MQC (nominal as E14)): 100.1%
Mean accuracy (%), Table S12 ([4]; HQC (nominal as E15)): 110.7%
Mean accuracy (%), Table S12 ([4]; LQC (nominal as E13)): 97.8%
Mean accuracy (%), Table S12 ([4]; MQC (nominal as E14)): 102.8%
Mean accuracy (%), Table S14 ([4]; HQC (nominal as E15)): 112.3%
Mean accuracy (%), Table S14 ([4]; LQC (nominal as E13)): 96.9%
Mean accuracy (%), Table S14 ([4]; MQC (nominal as E14)): 105.0%
